# Assays:
# human CD38 = biological target: T1, human CD38 (Homo sapiens, UniProt P28907); assay: human recombinant CD38 enzyme assay (hydrolysis of NAD+); assay type: biochemical; conditions: human recombinant CD38, 0.4 nM enzyme, 62.5 μM NAD+; read-out: hCD38 BioChem IC50
# T1 sequence (P28907 1-300): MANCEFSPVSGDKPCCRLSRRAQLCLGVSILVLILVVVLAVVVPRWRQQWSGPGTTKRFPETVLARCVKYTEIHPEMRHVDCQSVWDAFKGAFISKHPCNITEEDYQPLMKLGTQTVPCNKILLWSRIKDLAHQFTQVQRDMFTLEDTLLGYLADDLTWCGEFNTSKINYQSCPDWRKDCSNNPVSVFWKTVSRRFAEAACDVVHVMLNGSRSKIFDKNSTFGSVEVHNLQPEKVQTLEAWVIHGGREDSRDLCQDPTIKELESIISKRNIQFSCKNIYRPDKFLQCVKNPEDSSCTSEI
# Method in brief: (§1)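 Recombinant human or mouse CD38 hydrolyzing NAD+ in a cell-free buffered system. Dose-responses were run for 60 min at ambient temperature. Remaining NAD+ was converted to NADH by alcohol dehydrogenase, which drove diaphorase reduction of resazurin to resorufin, read at 540/590 nm.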
# mouse CD38 = biological target: T2, mouse CD38 (Mus musculus, UniProt P56528); assay: mouse recombinant CD38 enzyme assay (hydrolysis of NAD+); assay type: biochemical; conditions: read-out: mCD38 BioChem IC50
# T2 sequence (P56528 1-304): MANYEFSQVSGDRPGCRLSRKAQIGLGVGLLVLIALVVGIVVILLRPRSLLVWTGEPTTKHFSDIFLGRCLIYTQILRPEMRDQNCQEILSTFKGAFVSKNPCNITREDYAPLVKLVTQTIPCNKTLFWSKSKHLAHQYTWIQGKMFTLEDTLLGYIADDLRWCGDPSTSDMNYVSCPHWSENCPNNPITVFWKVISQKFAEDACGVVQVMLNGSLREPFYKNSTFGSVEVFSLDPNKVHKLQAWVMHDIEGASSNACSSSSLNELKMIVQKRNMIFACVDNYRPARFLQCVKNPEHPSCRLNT
# Method in brief: as §1
# [1] = biological target: T3, endogenous CD38 in HL60 cells (Homo sapiens, UniProt P28907); assay: cellular CD38 assay in HL60 cells (cellular NAD levels); assay type: cell-based; conditions: all-trans retinoic acid, 24 hours, read-out: hCD38 HL60 ATRA NAD Cell Diaphorase IC50
# T3 construct: endogenous in cells; host or cells: HL60 (leukemic cells, treated with all-trans retinoic acid)
# T3 sequence (P28907 1-300): T1 sequence (P28907 1-300)
# Method in brief: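 HL60 cells (20000/well) were treated with compound in DMSO for 24 h. Cellular NAD was then measured by an enzymatic cycling mix (alcohol dehydrogenase, diaphorase, 40 uM resazurin, 10 uM FMN, 3% ethanol, Triton X-100, pH 8.4).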
IC50 (human CD38) [nM],IC50 (mouse CD38) [nM],IC50 [1] [nM],Structure (SMILES)
1130,491,8510,"O=C(Nc1ccccn1)c1cc(-n2ccnc2)ccn1 [Compound 4, 4-(1H-imidazol-1-yl)-N-(pyridin-2-yl)picolinamide]"
3,1,264,"Cc1cc(C(=O)Nc2cccnc2)nc(-n2ccnc2)c1 [Compound 32, 6-(1H-imidazol-1-yl)-4-methyl-N-(pyridin-3-yl)picolinamide]"
76,15,1320,"O=C(NC1CC2C(C1)C2(F)F)c1cccc(-n2ccnc2)n1 (stereo not drawn) [Compound 135, N-(6,6-difluorobicyclo[3.1.0]hexan-3-yl)-6-(1H-imidazol-1-yl)picolinamide]"
53.7,8.1,7290,"COCCO[C@H]1CC[C@H](NC(=O)c2nc(C)cc(-c3cncn3C)n2)CC1 [Compound 232, N-((1r,4r)-4-(2-methoxyethoxy)cyclohexyl)-4-methyl-6-(1-methyl-1H-imidazol-5-yl)pyrimidine-2-carboxamide]"
4,6,280,"O=C(Nc1ccc(C(F)F)nc1)c1cccc(-n2ccnc2)n1 [Compound 95, N-(6-(difluoromethyl)pyridin-3-yl)-6-(1H-imidazol-1-yl)picolinamide]"
37,5,3020,"CC(C)(O)[C@H]1CC[C@H](NC(=O)c2cccc(-n3ccnc3)n2)CC1 [Compound 134, N-((1r,4r)-4-(2-Hydroxypropan-2-yl)cyclohexyl)-6-(1H-imidazol-1-yl)picolinamide]"
131,32,3360,"Cn1cncc1-c1cccc(C(=O)N[C@H]2CC[C@H](C(F)F)CC2)n1 [Compound 77, N-(4-(difluoromethyl)cyclohexyl)-6-(1-methyl-1H-imidazol-5-yl)picolinamide]"
21,5,2950,"CC(C)c1cc(C(=O)N[C@H]2CC[C@H](C(F)F)CC2)nc(-c2cncn2C)n1 [Compound 172, N-((1r,4r)-4-(difluoromethyl)cyclohexyl)-6-isopropyl-2-(1-methyl-1H-imidazol-5-yl)pyrimidine-4-carboxamide]"
38,19,2080,"CO[C@H]1CC[C@H](NC(=O)c2cncc(-c3cncn3C)n2)CC1 [Compound 91, N-((1r,4r)-4-methoxycyclohexyl)-6-(1-methyl-1H-imidazol-5-yl)pyrazine-2-carboxamide]"
46.4,27.2,1870,"O=C(N[C@H]1C[C@H](c2ccccc2F)C1)c1nccc(-n2ccnc2)n1 [Compound 236, N-((1r,3r)-3-(2-fluorophenyl)cyclobutyl)-4-(1H-imidazol-1-yl)pyrimidine-2-carboxamide]"
43.2,40.9,2380,"O=C(N[C@H]1C[C@H](c2ccc(F)cc2)C1)c1nccc(-n2ccnc2)n1 [Compound 238, N-((1r,3r)-3-(4-fluorophenyl)cyclobutyl)-4-(1H-imidazol-1-yl)pyrimidine-2-carboxamide]"
26,4,2450,"O=C(N[C@H]1CC[C@H](C(F)F)CC1)c1cc(C2CC2)nc(-n2ccnc2)n1 [Compound 161, 6-cyclopropyl-N-((1r,4r)-4-(difluoromethyl)cyclohexyl)-2-(1H-imidazol-1-yl)pyrimidine-4-carboxamide]"
8.9,7.5,1370,"Cn1cncc1-c1cnc(N)c(C(=O)Nc2ccc(C(F)(F)F)nc2)n1 [Compound 314, 3-amino-6-(1-methyl-1H-imidazol-5-yl)-N-(6-(trifluoromethyl)pyridin-3-yl)pyrazine-2-carboxamide]"
3.8,1.6,376,"Cc1cc(-c2cncn2C)nc(C(=O)Nc2ccc(C(F)(F)F)nc2)n1 [Compound 235, 4-methyl-6-(1-methyl-1H-imidazol-5-yl)-N-(6-(trifluoromethyl)pyridin-3-yl)pyrimidine-2-carboxamide]"
46.1,15.6,2280,"Cn1cncc1-c1ccnc(C(=O)N[C@H]2CC[C@H](CO)CC2)n1 [Compound 259, N-((1r,4r)-4-(hydroxymethyl)cyclohexyl)-4-(1-methyl-1H-imidazol-5-yl)pyrimidine-2-carboxamide]"
9,1,928,"COc1cc(C(=O)N[C@H]2CC[C@H](OC)CC2)nc(-c2cncn2C)n1 [Compound 128, 6-methoxy-N-((1r,4r)-4-methoxycyclohexyl)-2-(1-methyl-1H-imidazol-5-yl)pyrimidine-4-carboxamide]"
41,19,1360,"Cn1cncc1-c1ccnc(C(=O)N[C@H]2CC[C@H](C(F)F)CC2)n1 [Compound 75, N-((1r,4r)-4-(difluoromethyl)cyclohexyl)-4-(1-methyl-1H-imidazol-5-yl)pyrimidine-2-carboxamide]"
22,15,2250,"CC(C)c1cc(C(=O)Nc2ccc(C(F)F)nc2)nc(-n2ccnc2)n1 [Compound 169, N-(6-(difluoromethyl)pyridin-3-yl)-2-(1H-imidazol-1-yl)-6-isopropylpyrimidine-4-carboxamide]"
13.5,3.8,2150,"Cn1cncc1-c1nc(C(=O)N[C@H]2CC[C@H](OC(F)F)CC2)cc(C2(C)COC2)n1 [Compound 311, N-((1r,4r)-4-(difluoromethoxy)cyclohexyl)-2-(1-methyl-1H-imidazol-5-yl)-6-(3-methyloxetan-3-yl)pyrimidine-4-carboxamide]"
10.7,13.8,874,"CC(C)(O)c1ccc(NC(=O)c2ccnc(-n3ccnc3)n2)cn1 [Compound 248, N-(6-(2-hydroxypropan-2-yl)pyridin-3-yl)-2-(1H-imidazol-1-yl)pyrimidine-4-carboxamide]"
10,2,1130,"Cc1cc(C(=O)N[C@H]2CC[C@H](C(F)F)CC2)nc(-n2ccnc2)n1 [Compound 120, N-((1r,4r)-4-(difluoromethyl)cyclohexyl)-2-(1H-imidazol-1-yl)-6-methylpyrimidine-4-carboxamide]"
24,10,1360,"Cn1cncc1-c1cncc(C(=O)N[C@H]2CC[C@H](C)CC2)n1 [Compound 104, 6-(1-methyl-1H-imidazol-5-yl)-N-((1r,4r)-4-methylcyclohexyl)pyrazine-2-carboxamide]"
8.6,1,1240,"Cn1cncc1-c1nc(C(=O)Nc2ccc(C(F)(F)F)nc2)cc(C2CCC(F)(F)CC2)n1 [Compound 285, 6-(4,4-difluorocyclohexyl)-2-(1-methyl-1H-imidazol-5-yl)-N-(6-(trifluoromethyl)pyridin-3-yl)pyrimidine-4-carboxamide]"
3,3,273,"Cc1cc(NC(=O)c2cccc(-n3ccnc3)n2)ccn1 [Compound 21, 6-(1H-imidazol-1-yl)-N-(2-methylpyridin-4-yl)picolinamide]"
5,14,187,"O=C(Nc1cccnc1)c1nccc(-n2ccnc2)n1 [Compound 36, 4-(1H-imidazol-1-yl)-N-(pyridin-3-yl)pyrimidine-2-carboxamide]"
173,150,4330,"O=C(Nc1ccc(C(F)F)nc1)c1ccnc(-c2cncs2)n1 [Compound 114, N-(6-(difluoromethyl)pyridin-3-yl)-2-(thiazol-5-yl)pyrimidine-4-carboxamide]"
330,335,6460,"CC(C)(O)c1cc(C(=O)Nc2ccc(C(F)(F)F)nc2)nc(-n2ccnc2)n1 [Compound 175, 6-(2-hydroxypropan-2-yl)-2-(1H-imidazol-1-yl)-N-(6-(trifluoromethyl)pyridin-3-yl)pyrimidine-4-carboxamide]"
6,2,959,"O=C(Nc1cccnc1)c1cc(C(F)(F)F)cc(-n2ccnc2)n1 [Compound 40, 6-(1H-imidazol-1-yl)-N-(pyridin-3-yl)-4-(trifluoromethyl)picolinamide]"

# — patent publication US20230116972A1, “CD38 MODULATORS AND METHODS OF USE THEREOF” (Cytokinetics, Inc., priority 2021, published 2023)
